Experimental findings from publication PMC5424495 are described below.

Data set [1] can be described thus: same transimination equilibrium: L1 (bis-hexylimine calix[4]arene) + diamine 3 = C1 + 2 hexylamine. The settings on record: the molecule shown is the open-chain precursor, CD3CN, 2.5 mM, 25.0 °C, 2 steps.
A short description of data set [2]: reversible transimination ring closure of 1,3-distal diimine cone-calix[4]arene (tetrakis(2-ethoxyethoxy)) with alpha,omega-diaminoalkanes H2N(CH2)nNH2, displacing hexylamine chain stopper; no catalyst; thermodynamic equilibrium in dynamic library. As to conditions: the molecule shown is the open-chain precursor, CD3CN, 2.5 mM, 25.0 °C.

Consider `CCCCCC/N=C/c1cc2c(OCCOCC)c(c1)Cc1cccc(c1OCCOCC)Cc1cc(/C=N/CCN)cc(c1OCCOCC)Cc1cccc(c1OCCOCC)C2` [C1a (diamine 3a, n=2)], for which the ring closure, K in data set [1] (17-membered ring) came out at 0.025 M. The ring closure, effective molarity in data set [2] (17-membered ring) came out at 0.05 M.
In the case of `CCCCCC/N=C/c1cc2c(OCCOCC)c(c1)Cc1cccc(c1OCCOCC)Cc1cc(/C=N/CCCN)cc(c1OCCOCC)Cc1cccc(c1OCCOCC)C2` [C1b (diamine 3b, n=3)], the ring closure, K in data set [1] (18-membered ring) was determined as 0.9 M. In data set [2] (18-membered ring), this compound had a ring closure, effective molarity of 0.5 M.
For `CCCCCC/N=C/c1cc2c(OCCOCC)c(c1)Cc1cccc(c1OCCOCC)Cc1cc(/C=N/CCCCN)cc(c1OCCOCC)Cc1cccc(c1OCCOCC)C2` [C1c (diamine 3c, n=4)], in data set [1] (19-membered ring), the ring closure, K came out at 0.03 M. Moreover, in data set [2] (19-membered ring), the ring closure, effective molarity turned out to be 0.01 M.
As for `CCCCCC/N=C/c1cc2c(OCCOCC)c(c1)Cc1cccc(c1OCCOCC)Cc1cc(/C=N/CCCCCN)cc(c1OCCOCC)Cc1cccc(c1OCCOCC)C2` [C1d (diamine 3d, n=5)], in data set [1] (20-membered ring), the ring closure, K is 3 M. In data set [2] (20-membered ring), this compound showed a ring closure, effective molarity of 1.5 M.
Consider `CCCCCC/N=C/c1cc2c(OCCOCC)c(c1)Cc1cccc(c1OCCOCC)Cc1cc(/C=N/CCCCCCN)cc(c1OCCOCC)Cc1cccc(c1OCCOCC)C2` [C1e (diamine 3e, n=6)], for which, in data set [1] (21-membered ring), the ring closure, K was 0.026 M. The same compound showed a ring closure, effective molarity in data set [2] (21-membered ring) of 0.01 M.
